Measurements: PMC13242511, “Disrupting Notch signalling by a small molecule inhibiting dihydroorotate dehydrogenase activity” (Scientific Reports, 2026)
Several values for one entry are separate records, joined by “and”; a condition that tells them apart may be missing. Equal values may be shown once. Entries after “also recorded” stand apart in the source; their conditions may differ. Read-outs that look alike come from different tables or passages of the source.

What was measured:
[1] = biological target: T1, DHODH (Homo sapiens, UniProt Q02127); assay: DHODH enzyme activity assay (Resorufin fluorescence, Reaction Biology); type: biochemical
T1 construct: purchased Reaction Biology (contract assay)
T1 sequence (Q02127 whole entry): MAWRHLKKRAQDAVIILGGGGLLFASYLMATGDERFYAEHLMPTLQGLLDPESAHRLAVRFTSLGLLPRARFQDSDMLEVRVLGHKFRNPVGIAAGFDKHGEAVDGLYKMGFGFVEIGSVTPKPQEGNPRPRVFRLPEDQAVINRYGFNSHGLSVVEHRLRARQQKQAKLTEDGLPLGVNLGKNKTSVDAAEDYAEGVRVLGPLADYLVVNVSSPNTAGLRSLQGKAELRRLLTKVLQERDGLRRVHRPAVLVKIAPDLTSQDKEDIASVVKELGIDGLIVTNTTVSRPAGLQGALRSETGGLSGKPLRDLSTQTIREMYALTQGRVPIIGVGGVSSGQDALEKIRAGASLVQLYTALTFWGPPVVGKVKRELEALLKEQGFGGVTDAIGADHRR
Protocol: DHODH enzyme activity was determined via fluorescence-based quantification (Resorufin fluorescence as endpoint measurement) at Reaction Biology. Reference compound BAY2402234 was measured in singletons in two biological replicates and compounds were measured in technical replicates within the indicated dose-ranges. Values were normalized to DMSO control and dose–response curves were fitted using the log(inhibitor) versus response – Variable slope (model: Y = Bottom + (Top–Bottom)/(1 + 10^((LogIC50-X)*HillSlope)) equation.

[2] = test system: mNotch1ΔE fused to an HiBiT tag; assay: HiBit reporter assay; type: cell-based, mouse; design: key to protein stability: + indicates that the compound had an effect; -: − indicates that there was no significant effect in the respective assay; conditions: for protein stability: summary Fig. 8E
Protocol: The Notch1ΔE construct used to generate the Notch reporter cell line (see above) was first cloned in frame into the pBiT3.2-C [TK/HiBiT/Blast] Vector (Promega) and then stably introduced into HEK293T wild type cells, using Lipofectamine transfection, as described. Analogous to the Notch reporter cell line, Blasticidin was used as a selection marker (0.1 mg/ml) and stable cell lines with robust luciferase signals were generated. […] A clone (#D2) with an empty HiBit vector stably integrated was used as control.
20 µl containing 4,000 cells were seeded on 384-well pre-spotted compound plates (Greiner, cat #781080). Cells were incubated for 24 h and viability was determined using CellTiter-Fluor (Promega, cat # G6080), following the manufacturer’s instructions. Next, cells were subjected to the HiBit assay according to the manufacturer’s instructions (Promega, cat # N3030). Prior to cell lysis, the tissue culture plates were allowed to cool down to room temperate. Fluorescence and luminescence signals were recorded using a SpectraMax i3 (Molecular devices) and signals were read at different time-points to determine optimal signal stability. Cells cultivated only with DMSO were used as a reference to determine effects of compounds. MG132, Bafilomycin A1 and the GSI RO4929097 served as additional controls. Celastrol was used to determine the assay window, and a minimum of two technical replicates were measured per assay.

[3] = test system: Notch signalling; assay: Notch reporter assay (12xCSL firefly luciferase / renilla luciferase, HEK293T Notch1ΔE reporter cell line clone #A1-11); type: cell-based; design: AUC Notch: scale not given here; conditions: for Bottom (Emax): Emax indicated independent from assay constraints, in % (unit assumed); for activity: 1,25µM; for AUC Notch: area under the 14-point dose-response curve; for concentrations associated with cytotoxicity (high dose-points removed): extended dose range, Supplemental Fig. 7B; for Notch assay: overview in comparison to compound C, Supplemental Fig. 9; for AUC 9p Notch reporter assay / AUC 14p Notch reporter assay: AUCs averaged when replicates available
Procedure, shortened: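 Compounds at two-fold concentration in 10 µl medium were brought to one-fold by adding 10 µl holding 4000 Notch reporter cells (clone #A1-11) per well of a 384-well plate. After 24 h, Promega dual-GLO firefly and renilla luciferase were read on a SpectraMaxi3. Dose-response curves were fitted with a log(inhibitor) vs. response variable-slope model.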

[4] = dose-range [M] 4.00E-05- 2.03E-09, 3 steps
[5] = Homo sapiens, HEK-293T, 14-point, unit inferred, replicates averaged, read-out: approxiated IC50s 14p Notch reporter assay
[6] = Homo sapiens, HEK-293T, 14p Notch assay DR, log10 value, bottom constrained to Emax of positive control DAPT, read-out: approximated LogIC50 (converted)
[7] = Homo sapiens, HEK-293T, 10 µM, primary screen, 24 h, unit from Fig. 2 legend, read-out: Primary screen at 10 µM (Notch reporter signal)
[8] = Homo sapiens, HEK-293T, 10 µM, three-dose confirmation screen, unit from Fig. 2 legend, read-out: Hit confirmation at 10 µM (Notch reporter signal)
[9] = Homo sapiens, HEK-293T, 10µM, 3-point DR confirmation screen, Notch reporter assay, read-out: inhibitor ratio in % of DMSO in 3 point DR
[10] = Homo sapiens, HEK-293T, 10 µM, sheet conf vs counter 10 µM, same values as 3-point DR confirmation screen, read-out: Confirmation screen
[11] = Homo sapiens, HEK-293T, 25µM, 3-point DR confirmation screen, Notch reporter assay, read-out: inhibitor ratio in % of DMSO in 3 point DR
[12] = Homo sapiens, HEK-293T, 25 µM, Notch reporter 3-point dose-confirmation assay, sheet "conf vs counter 25 µM", read-out: Confirmation screen
[13] = Homo sapiens, HEK-293T, 3-point DR confirmation screen, Notch reporter assay, read-out: inhibitor ratio in % of DMSO in 3 point DR
[14] = Fig. 7B, read-out: IC50s DHODH assay: IC50
[15] = dose-range [M] 4.00E-05- 2.03E-09, 3 steps, read-out: IC50
[16] = Homo sapiens, HEK-293T, 14-point dose-response, Fig. 4, read-out: approximated IC50, Notch reporter assay
[17] = Homo sapiens, HEK-293T, 14p Notch assay DR, bottom constrained to Emax of positive control DAPT, read-out: approximated IC50
[18] = Homo sapiens, HEK-293T, 14p Notch assay DR, bottom constrained to Emax of positive control RO4929097, read-out: approximated IC50
[19] = Homo sapiens, HEK-293T, 14p Notch assay DR, log10 value, bottom constrained to Emax of positive control RO4929097, read-out: approximated LogIC50 (converted)
[20] = 9p dose response, single replicates, read-out: approximated IC50s 9p Notch reporter assay
[21] = 14p dose response, single replicates, read-out: approximated IC50s 14p Notch reporter assay
[22] = Homo sapiens, HEK-293T, 9p dose response, averaged over replicates, read-out: 9p Notch reporter assay averaged IC50s
[23] = Homo sapiens, HEK-293T, 9p dose response, log10 of averaged IC50, read-out: 9p Notch reporter assay averaged IC50s (log) (converted)
[24] = Homo sapiens, HEK-293T, 14p Notch assay DR, log10 value, Notch inhibitor controls, no bottom constraint named, read-out: approximated LogIC50 (converted)
[25] = Homo sapiens, HEK-293T, 14p dose response, single replicates, read-out: approximated IC50s 14p Notch reporter assay
[26] = Homo sapiens, HEK-293T, 14p dose response, log10 of averaged IC50, read-out: 14p Notch reporter assay averaged IC50s (log) (converted)

IC50s DHODH assay: Hill-Slope ([1]; Fig. 7B)	Hill-slope [1, 4]	IC50 [3, 5]	IC50 [3, 6]	IC50 [1, 15]	IC50 [3, 16]	IC50 [3, 17]	IC50 [3, 18]	Structure (SMILES)	protein stability [2]	Bottom (Emax) ([3]; 14p Notch assay DR)	activity at 10 µM [3, 7]	activity at 10 µM [3, 8]	activity at 10 µM [3, 9]	activity at 10 µM [3, 10]	activity at 25 µM [3, 11]	activity at 25 µM [3, 12]	activity [3, 13]	AUC Notch ([3]; replicates averaged)	concentrations associated with cytotoxicity (high dose-points removed) [3]	Notch assay [3]	also measured
-4.5	-4.5	3400 nM	3980 nM	2.9e-05 M	3300 nM	4200 nM	2500 nM	CCc1c(C(=O)N(C)Cc2cnn(C(C)C)c2)[nH]c2ccccc12 [compound A]	-		25.3%	27.7%	27.7%	27.7%	19%	19%	65.8%	535.0			IC50 [1, 14]: 2.86e-05 M; IC50 ([3]; Homo sapiens, HEK-293T, 14-point dose-response, read-out: approximated IC50, Notch reporter assay): 4000 nM; IC50 [3, 19]: 2510 nM
		53 nM						CC(C)(C(=O)NCC(F)(F)C(F)(F)F)C(=O)N[C@@H]1C(=O)Nc2ccccc2-c2ccccc21 [RO4929097, reference compound]										430.0		higher potency	IC50 [3, 20]: 31 nM and 13 nM; AUC 9p Notch reporter assay ([3]; 9p dose response): 2.36E+02; IC50 [3, 21]: 45 nM; AUC 14p Notch reporter assay ([3]; 14p dose response): 4.30E+02; IC50 [3, 22]: 22 nM; IC50 [3, 23]: 20 nM; IC50 ([3]; Homo sapiens, HEK-293T, 14p Notch assay DR, Notch inhibitor controls, no bottom constraint named, read-out: approximated IC50): 21.7 nM; IC50 ([3]; Homo sapiens, HEK-293T, 14p Notch assay DR, averaged when replicate measurements were available, read-out: averaged IC50s): 42 nM; IC50 [3, 24]: 63.1 nM; IC50 [3, 25]: 60 nM; IC50 [3, 26]: 50.1 nM
-5.0	-5.0	780 nM	1580 nM	9.6e-06 M	1000 nM	1300 nM	230 nM	NC(=O)c1c(NC(=O)NCc2cccnc2)sc2c1CCC2 [compound D]	-		44.7%	47%	47%	47%	55.6%	55.6%	91%	273.0	higher than 12.5 µM		Hill slope, Notch reporter assay ([3]; 14-point dose-response): -1.7; IC50 [3, 19]: 251 nM

Further lines, the compound ahead of its results:

Structure (SMILES)	IC50s DHODH assay: Hill-Slope ([1]; Fig. 7B)	Hill-slope [1, 4]	IC50 [3, 5]	IC50 [3, 6]	IC50 [1, 15]	IC50 [3, 16]	IC50 [3, 17]	IC50 [3, 18]	protein stability [2]	Bottom (Emax) ([3]; 14p Notch assay DR)	activity at 10 µM [3, 7]	activity at 10 µM [3, 8]	activity at 10 µM [3, 9]	activity at 10 µM [3, 10]	activity at 25 µM [3, 11]	activity at 25 µM [3, 12]	activity [3, 13]	AUC Notch ([3]; replicates averaged)	concentrations associated with cytotoxicity (high dose-points removed) [3]	Notch assay [3]	also measured
COc1cccc(CNc2ccc(N3CCCCC3)cc2)c1OCc1cccs1 [compound C]	-15.6	-15.5	1200 nM	1260 nM					+	45.4	50.1%	66.2%	66.2%	66.2%	65.1%	65.1%	61.8%	584.0	higher than 12.5 µM	nanomolar potency	DHODH enzyme activity (in words) ([1]; Fig. 7B): appeared to reduce DHODH enzyme activity across the dose response range; IC50s DHODH assay: IC50 ([1]; Fig. 7B): indeterminate; IC50 ([1]; broader dose range, Fig. 7D, read-out: IC50, relative DHODH activity): 1.01e-08 M; LogIC50 [1, 4]: Unstable; DHODH assay ([1]; overview in comparison to compound C, Supplemental Fig. 9): active; HiBiT luciferase signal ([2]; 24 h, 14-point dose-response, Supplemental Fig. 8D,G): dose-dependent decrease of luciferase signal; Hill slope, Notch reporter assay ([3]; 14-point dose-response): -16.2; IC50 ([3]; Homo sapiens, HEK-293T, dose range 50 µM-2.5 nM, Fig. 7E, read-out: IC50, Notch reporter activity): 150 nM
C[C@H](NC(=O)Cc1cc(F)cc(F)c1)C(=O)N[C@H](C(=O)OC(C)(C)C)c1ccccc1 [DAPT, reference compound]										42.8 and 41.0								495.0		comparable	reporter signal in % of DMSO ([3]; 10 µM, inhibitor controls, Supplemental Fig. 2A): 49%; IC50 [3, 20]: 290 nM and 260 nM; AUC 9p Notch reporter assay ([3]; 9p dose response): 3.01E+02; IC50 ([3]; 9p dose response, averaged over replicates, read-out: 9p Notch reporter assay averaged IC50s): 280 nM; 9p Notch reporter assay averaged IC50s (log) ([3]; 9p dose response, log10 of averaged IC50): -6.6; IC50 ([3]; 14-point, unit inferred, replicates averaged, read-out: approxiated IC50s 14p Notch reporter assay): 440 nM; approximated LogIC50 [M] ([3]; 14p Notch assay DR, log10 value, Notch inhibitor controls, no bottom constraint named): -6.3 M; IC50 [3, 21]: 510 nM and 370 nM; AUC 14p Notch reporter assay ([3]; 14p dose response): 4.95E+02; 14p Notch reporter assay averaged IC50s (log) ([3]; 14p dose response, log10 of averaged IC50): -6.4; renilla signal ([3]; 384-well format): not affected
Cc1ccc2[nH]c3c(c2c1)CCOC31CCN(Cc2ccccc2-c2ccccc2)CC1 [compound B]	-5.7	-5.7	910 nM	1260 nM	2.2e-06 M	900 nM	1200 nM	590 nM	+		60.8%	65%		65%		69.3%	79.7%	573.0	higher than 5 µM		IC50 [1, 14]: 2.2e-06 M; IC50 [3, 19]: 631 nM
Cc1nn(-c2nc3ccccc3s2)c(O)c1C1OC(=O)c2ccccc21 (centres unmarked) [compound E]	-4.4	-4.4		794 nM	3.7e-05 M	730 nM			-	54.2	45%	38%	38%	38%	35.2%	35.2%	37.1%	577.0			IC50 ([3]; 14-point dose-response, Fig. 4, read-out: approximated IC50, Notch reporter assay): 700 nM
CC(C)(C)c1ccc(Oc2ccc(N)cn2)cc1 [CB-103, reference compound]			5500 nM															546.0		lower potency; also recorded: lower activity than compound C	AUC 9p Notch reporter assay ([3]; 9p dose response): 3.40E+02; IC50 [3, 21]: 5800 nM; AUC 14p Notch reporter assay ([3]; 14p dose response): 5.46E+02; IC50 [3, 22]: 15000 nM; IC50 [3, 23]: 15800 nM; IC50 [3, 24]: 6310 nM; IC50 [3, 25]: 5100 nM; IC50 [3, 26]: 5010 nM
